Structures are written as SMILES. Values after ≈ are worked out from the molar mass of the structure shown. Read-outs that look alike come from different tables or passages of the source.

The subject of assay [1] is S. maltophilia ATCC 13637. Nature of the assay: Antibacterial activity: MIC/MBC, MIC with PAβN, disc-diffusion. The settings on record: S. maltophilia ATCC 13637; for MIC: Stenotrophomonas maltophilia, ATCC13637, read-out: MIC. It counts as cell-based, Stenotrophomonas maltophilia. On the procedure:
(§1) Direct antimicrobial activity was determined against the following standard strains: (1) Gram-positive cocci: methicillin-sensitive Staphylococcus aureus ATCC 6538P (MSSA), methicillin-resistant S. aureus subsp. aureus ATCC 43300 (MRSA), S. epidermidis ATCC 12228, Enterococcus faecium ATCC 6057, E. faecalis ATCC 29212, Bacillus subtilis ATCC 6633; (2) Gram-negative bacteria from Enterobacteriales order: Klebsiella pneumoniae ATCC 13883, Escherichia coli ATCC 25922, Enterobacter cloacae DSM 6234, Proteus mirabilis ATCC 12453, Serratia marcescens ATCC 13880; (3) Gram-negative non-fermentative rods: Acinetobacter baumannii ATCC 19606, Pseudomonas aeruginosa ATCC 27853, Stenotrophomonas maltophilia ATCC 12714, S. maltophilia ATCC 13637, Burkholderia cepacia ATCC 25416, Bordetella bronchiseptica ATCC 4617; (4) yeasts: Candida albicans ATCC 90028, C. krusei ATCC 6258, C. parapsilosis ATCC 22019, C. tropicalis (Castellani) Berkhout ATCC 750, C. tropicalis IBA 171, C. guilliermondii IBA 155, and Saccharomyces cerevisiae ATCC 9763. Moreover, 5 clinical strains of methicillin-resistant S. aureus were also included: NMI 664 K, NMI 1576 K, NMI 1712 K, NMI 1991 K, and NMI 2541 K. All strains were stored at −80 °C. Prior to testing, each bacterial strain was subcultured twice on tryptic soy agar TSA (bioMerieux) medium and yeast strains on Sabouraud dextrose agar (bioMerieux) for 24–48 h at 30 °C to ensure viability. The antimicrobial activity was evaluated as previously described[26] by the disc-diffusion method and the MIC determination assays according to the EUCAST (ref. [71] and [72]) and CLSI (ref. [53] and [73]) recommendations. Assessment of bactericidal (MBC) and fungicidal (MFC) activities was performed according to the CLSI recommendations.[54,74] […] The new benzosiloxaboroles were dissolved in DMSO (Sigma).
(§2) Considering that the MDR efflux pumps often contribute to Gram-negative rod resistance, the MIC values of studied agents, with or without the pump inhibitor, PAβN (20 μg mL^−1) (Sigma), were determined.[75] The MIC was determined using Mueller–Hinton II broth medium (MHB) (Becton Dickinson) by the broth microdilution method, according to the CLSI guideliness.[53] To minimize the influence of PAβN on the destabilization of bacterial cell covers, the tests were conducted in the presence of 1 mM MgSO4 (Sigma).[76] At least a 4-fold reduction in the MIC value after the addition of PAβN was considered significant.[56,77]

The subject of assay [2] is S. maltophilia ATCC 12714. The assay is described as above. Format: cell-based, Stenotrophomonas maltophilia. The settings on record: Stenotrophomonas maltophilia, ATCC12714; S. maltophilia ATCC 12714; read-out: MIC. Here is the method:
as §1, §2

A further assay has as its system P. mirabilis ATCC 12453. The description is as above. It counts as cell-based, Proteus mirabilis. The settings on record: Proteus mirabilis, ATCC12453; P. mirabilis ATCC 12453; read-out: MIC. Here is the method: as §1, §2
In a further assay the test system is A. baumannii ATCC 19606. The assay is described as above. Format: cell-based, Acinetobacter baumannii. The settings on record: Acinetobacter baumannii, ATCC19606; A. baumannii ATCC 19606; read-out: MIC. Here is the method:
as §1, §2

The test system of the next assay is B. cepacia ATCC 25416. Nature of the assay: Antibacterial activity: MIC/MBC, disc-diffusion. It counts as cell-based, Burkholderia cepacia. The settings on record: Burkholderia cepacia, ATCC25416; B. cepacia ATCC 25416; read-out: MIC. On the procedure:
as §1, §2

The next assay relates to E. coli ATCC 25922. Nature of the assay: Antibacterial activity: MIC/MBC, MIC with PAβN, disc-diffusion. It counts as cell-based, Escherichia coli. The settings on record: E. coli ATCC 25922; for -fold reduction of MIC in the presence of PAβN: PAβN 20 μg mL^−1, MHB + 1 mM MgSO4; for MIC: Escherichia coli, ATCC25922, read-out: MIC. On the procedure: as §1, §2
The next assay concerns C. tropicalis IBA 171. Nature of the assay: Antifungal activity: MIC/MFC, disc-diffusion. Format: cell-based. The settings on record: Candida tropicalis, IBA171; read-out: MIC. On the procedure:
(§3) Direct antimicrobial activity was determined against the following standard strains: (1) Gram-positive cocci: methicillin-sensitive Staphylococcus aureus ATCC 6538P (MSSA), methicillin-resistant S. aureus subsp. aureus ATCC 43300 (MRSA), S. epidermidis ATCC 12228, Enterococcus faecium ATCC 6057, E. faecalis ATCC 29212, Bacillus subtilis ATCC 6633; (2) Gram-negative bacteria from Enterobacteriales order: Klebsiella pneumoniae ATCC 13883, Escherichia coli ATCC 25922, Enterobacter cloacae DSM 6234, Proteus mirabilis ATCC 12453, Serratia marcescens ATCC 13880; (3) Gram-negative non-fermentative rods: Acinetobacter baumannii ATCC 19606, Pseudomonas aeruginosa ATCC 27853, Stenotrophomonas maltophilia ATCC 12714, S. maltophilia ATCC 13637, Burkholderia cepacia ATCC 25416, Bordetella bronchiseptica ATCC 4617; (4) yeasts: Candida albicans ATCC 90028, C. krusei ATCC 6258, C. parapsilosis ATCC 22019, C. tropicalis (Castellani) Berkhout ATCC 750, C. tropicalis IBA 171, C. guilliermondii IBA 155, and Saccharomyces cerevisiae ATCC 9763. Moreover, 5 clinical strains of methicillin-resistant S. aureus were also included: NMI 664 K, NMI 1576 K, NMI 1712 K, NMI 1991 K, and NMI 2541 K. All strains were stored at −80 °C. Prior to testing, each bacterial strain was subcultured twice on tryptic soy agar TSA (bioMerieux) medium and yeast strains on Sabouraud dextrose agar (bioMerieux) for 24–48 h at 30 °C to ensure viability. The antimicrobial activity was evaluated as previously described[26] by the disc-diffusion method and the MIC determination assays according to the EUCAST (ref. [71] and [72]) and CLSI (ref. [53] and [73]) recommendations. Assessment of bactericidal (MBC) and fungicidal (MFC) activities was performed according to the CLSI recommendations.[54,74] The following reference agents were used: fluconazole (in the case of fungi), linezolid (for Gram-positive bacteria), and nitrofurantoin (for Gram-negative rods). The new benzosiloxaboroles were dissolved in DMSO (Sigma).

The subject of the next assay is P. aeruginosa ATCC 27853. Put plainly: Antibacterial activity: MIC/MBC, MIC with PAβN, disc-diffusion. It counts as cell-based. The settings on record: Pseudomonas aeruginosa, ATCC27853; P. aeruginosa ATCC 27853; read-out: MIC. Here is the method: as §1, §2
In assay [3] the test system is B. bronchiseptica ATCC 4617. Nature of the assay: Antibacterial activity: MIC/MBC, disc-diffusion. It counts as cell-based, Bordetella bronchiseptica. The settings on record: Bordetella bronchiseptica, ATCC4617; B. bronchiseptica ATCC 4617; read-out: MIC. Here is the method:
as §1, §2

For another assay, the system named is S. aureus ATCC 6538P. Nature of the assay: Antibacterial activity: MIC/MBC determination and disc-diffusion. The settings on record: S. aureus ATCC 6538P; for diameter of inhibition zone: disc-diffusion, — = zone not observed; for MBC / MIC: Staphylococcus aureus, ATCC6538P; for MIC: read-out: MIC. Format: cell-based, Staphylococcus aureus. On the procedure: as §3

[4] abbreviates: read-out: MBC (first MBC where Eagle effect).

For the compound `C[Si]1(C)OB(O)c2cc(F)c(SCCC#N)c(F)c21` [Compound 6, 3-((5,7-Difluoro-3-hydroxy-1,1-dimethyl-1,3-dihydrobenzo[c][1,2,5]oxasilaborol-6-yl)thio)propanenitrile], the “-fold reduction of MIC in the presence of PAβN” value in [1] (PAβN 20 μg mL^−1, MHB + 1 mM MgSO4) is on record as 2 -fold; with E. coli ATCC 25922, 2 -fold. In addition, the minimum inhibitory concentration (MIC) (in [1]; in assay [2]; in the assay with P. mirabilis ATCC 12453; with A. baumannii ATCC 19606; with B. cepacia ATCC 25416; in the assay with E. coli ATCC 25922) was over 400 µg/mL each time. Further, the MIC in the assay on C. tropicalis IBA 171 is over 400 µg/mL; in the assay on P. aeruginosa ATCC 27853 it was over 400 µg/mL; in assay [3], over 400 µg/mL; with S. aureus ATCC 6538P, 6.25 µg/mL (≈ 20.9 µM). Besides, the “diameter of inhibition zone” value in the assay on S. aureus ATCC 6538P came to 30 mm. For the same compound, the MBC in the assay with S. aureus ATCC 6538P (setting [4]) was 12.5 µg/mL (≈ 41.8 µM); in the assay with S. aureus ATCC 6538P (value after the slash, read-out: second MBC (Eagle effect)), over 400 µg/mL.

Turning to `C[Si]1(C)OB(O)c2cc(F)c(SCCC(N)=O)c(F)c21` [Compound 7, 3-((5,7-Difluoro-3-hydroxy-1,1-dimethyl-1,3-dihydrobenzo[c][1,2,5]oxasilaborol-6-yl)thio)propanamide], the MIC (in assay [1]; in assay [2]; with P. mirabilis ATCC 12453; in the assay on A. baumannii ATCC 19606; with B. cepacia ATCC 25416; in the assay on E. coli ATCC 25922) was over 400 µg/mL each time. Further, the minimum inhibitory concentration (MIC) in the assay with C. tropicalis IBA 171 is over 400 µg/mL; in the assay with P. aeruginosa ATCC 27853, over 400 µg/mL; in assay [3] it was over 400 µg/mL; in the assay with S. aureus ATCC 6538P it was 50 µg/mL (≈ 158 µM). Also, in the assay with E. coli ATCC 25922, the “-fold reduction of MIC in the presence of PAβN” value was 4 -fold. Besides, in the assay on S. aureus ATCC 6538P, the “diameter of inhibition zone” value was 24 mm.

Turning to `C[Si]1(C)OB(O)c2cc(F)c(SCCC(=O)N3CCOCC3)c(F)c21` [Compound 8, 3-((5,7-Difluoro-3-hydroxy-1,1-dimethyl-1,3-dihydrobenzo[c][1,2,5]oxasilaborol-6-yl)thio)-1-morpholinopropan-1-one], the MIC (in [1]; in assay [2]; with P. mirabilis ATCC 12453; in the assay with A. baumannii ATCC 19606; with B. cepacia ATCC 25416; in the assay with E. coli ATCC 25922) was over 400 µg/mL each time. In addition, the minimum inhibitory concentration (MIC) was over 400 µg/mL in the assay on C. tropicalis IBA 171, over 400 µg/mL in the assay with P. aeruginosa ATCC 27853, over 400 µg/mL in assay [3] and 50 µg/mL (≈ 129 µM) in the assay with S. aureus ATCC 6538P. In addition, in the assay with S. aureus ATCC 6538P, the “diameter of inhibition zone” value came to 25 mm.

For the compound `C[Si]1(C)OB(O)c2cc(F)c(SCCC(=O)Nc3ncccn3)c(F)c21` [Compound 9, 3-((5,7-Difluoro-3-hydroxy-1,1-dimethyl-1,3-dihydrobenzo[c][1,2,5]oxasilaborol-6-yl)thio)-N-(pyrimidin-2-yl)propanamide], the MIC (in assay [1]; in [2]; in the assay on P. mirabilis ATCC 12453; in the assay with A. baumannii ATCC 19606; in the assay on B. cepacia ATCC 25416; in the assay with E. coli ATCC 25922) was over 400 µg/mL in each case. The MIC in the assay with C. tropicalis IBA 171 was over 400 µg/mL; with P. aeruginosa ATCC 27853, over 400 µg/mL; in assay [3], over 400 µg/mL; with S. aureus ATCC 6538P, 25 µg/mL (≈ 63.2 µM). Further, the “diameter of inhibition zone” value in the assay on S. aureus ATCC 6538P turned out to be 17 mm. The minimal bactericidal concentration (MBC) with S. aureus ATCC 6538P (setting [4]) turned out to be 400 µg/mL (≈ 1010 µM).

Consider `C[Si]1(C)OB(O)c2cc(F)c(SCCC(=O)Nc3cnccn3)c(F)c21` [Compound 10, 3-((5,7-Difluoro-3-hydroxy-1,1-dimethyl-1,3-dihydrobenzo[c][1,2,5]oxasilaborol-6-yl)thio)-N-(pyrazin-2-yl)propanamide], for which the minimal inhibitory concentration (MIC) (in [1]; in assay [2]; in the assay on P. mirabilis ATCC 12453; with A. baumannii ATCC 19606; in the assay on B. cepacia ATCC 25416; in the assay on E. coli ATCC 25922) was over 400 µg/mL each time. Further, the MIC with C. tropicalis IBA 171 was over 400 µg/mL; in the assay with P. aeruginosa ATCC 27853, over 400 µg/mL; in assay [3] it was over 400 µg/mL; with S. aureus ATCC 6538P, 50 µg/mL (≈ 126 µM). For the same compound, the “diameter of inhibition zone” value in the assay with S. aureus ATCC 6538P was 24 mm. Also, the MBC in the assay on S. aureus ATCC 6538P (setting [4]) is 400 µg/mL (≈ 1010 µM).

With `Cc1cc(NC(=O)CCSc2c(F)cc3c(c2F)[Si](C)(C)OB3O)no1` [Compound 11, 3-((5,7-Difluoro-3-hydroxy-1,1-dimethyl-1,3-dihydrobenzo[c][1,2,5]oxasilaborol-6-yl)thio)-N-(5-methylisoxazol-3-yl)propanamide], the minimum inhibitory concentration (MIC) (in [1]; in [2]; in the assay on P. mirabilis ATCC 12453; with A. baumannii ATCC 19606; in the assay with B. cepacia ATCC 25416; in the assay with E. coli ATCC 25922) was over 400 µg/mL in each case. Also, the MIC in the assay with C. tropicalis IBA 171 is over 400 µg/mL; in the assay with P. aeruginosa ATCC 27853 it was over 400 µg/mL; in assay [3], over 400 µg/mL; in the assay on S. aureus ATCC 6538P it was 25 µg/mL (≈ 62.8 µM). Moreover, in the assay with S. aureus ATCC 6538P, the “diameter of inhibition zone” value is given as 21 mm. In addition, the MBC in the assay with S. aureus ATCC 6538P (setting [4]) was determined as 400 µg/mL (≈ 1000 µM).

The record behind these values is publication PMC11110727, “Exploiting thiol-functionalized benzosiloxaboroles for achieving diverse substitution patterns – synthesis, characterization and biological evaluation of promising antibacterial agents” (RSC Medicinal Chemistry, 2024).
